# Measured values published in patent US20150266836A1, “AROMATIC SULFIDE COMPOUNDS AND METHODS AND USE THEREOF” (The Regents of the University of California, priority 2014, published 2015).
# pEC50: −log10 of the molar value.
# Test system: not given
# Experiment: not given
# Conditions: not given
row,Structure (SMILES),melting point [°C]
1,"Fc1c(F)c(F)c(Sc2ccccc2)c(F)c1F [Compound 11, (Perfluorophenyl)(phenyl)sulfane]",45 to 48
2,"c1ccc(Sc2nnnn2-c2ccccc2)cc1 [Compound 18, 1-Phenyl-5-(phenylthio)-1H-tetrazole]",129 to 133
3,"N#Cc1cccc(Sc2ncccn2)c1 [Compound 23, 3-(Pyrimidin-2-ylthio)benzonitrile]",71 to 73
4,"COc1cc(Sc2ncccn2)cc(OC)c1OC [Compound 24, 2-(3,4,5-Trimethoxyphenylthio)pyrimidine]",103 to 104
5,"COc1cc(Sc2nc3ccccc3o2)cc(OC)c1OC [Compound 25, 2-(3,4,5-Trimethoxyphenylthio)benzoxazole]",129 to 130
6,"COc1cc(Sc2nnnn2-c2ccccc2)cc(OC)c1OC [Compound 26, 1-Phenyl-5-(3,4,5-trimethoxyphenylthio)-1H-tetrazole]",110 to 111
7,"COc1cc(Sc2nnc(-c3ccccc3)o2)cc(OC)c1OC [Compound 27, 2-Phenyl-5-(3,4,5-trimethoxyphenylthio)-1,3,4-oxadiazole]",142

# Test system: MCF-7 breast cancer cell line
# Experiment: Proliferation-based anti-breast-cancer assay (CyQUANT Cell Proliferation Assay) against MCF-7 cells
# Conditions: Homo sapiens, MCF7, dose-response, 10 concentrations serially diluted from 120 μM, DMEM 2% FBS, normalized to DMSO vehicle, read-out: inhibition of MCF-7 cell proliferation, EC50
# Description: Biological experiments were performed according to a modified procedure by Sigman et al.
# MCF-7 cells were maintained in DMEM/high glucose supplemented with 10% FBS, L-glutamine, and penicillin/streptomycin. Experiments with MCF-7 cells were performed in DMEM/high glucose supplemented with 2% FBS, L-glutamine, and penicillin/streptomycin. MCF-10A cells were maintained in standard medium according to a modified recipe by Brugge et al. DMEM/F12 supplemented with 5% horse serum, 10 μg/mL of human insulin, 0.5 μg/mL of hydrocortisone, 10 ng/mL of EGF, 100 ng/mL of cholera toxin, and penicillin/streptomycin. Experiments with MCF-10A cells were performed in the same medium.
# MCF-7 cells were centrifuged in 1×PBS for 20 min, and then the pellet was resuspended in DMEM supplemented with 10% FBS and filtered through a 40 μm nylon cell strainer (Fisher Scientific) to prevent clumping. The cells were seeded at 1500 cells per well in 96-well flat bottom plates suitable for fluorimetry, using 175 μL per well of DMEM supplemented with 10% FBS, and grown for 24 h in 5% CO2 at 37° C. The compounds (including the faslodex positive control) were dissolved in molecular biology grade DMSO to achieve a 3.5 mM stock solution and then sterile filtered through a 0.45 μm PVDF syringe filter unit (Fisher Scientific). The 3.5 mM stock solutions were subsequently diluted to a final concentration of 10 μM in DMEM supplemented with 2% FBS. Additionally, the corresponding DMSO vehicle control was diluted using the same medium.
# After 24 h of growth, the cells were treated by replacing the normal media with fresh media containing the individual compounds or vehicle control (day 0). The outer rows of wells were not used to eliminate the possibility of effects due to evaporation of media. The cells were incubated with compound for 48 h and then treated again by aspirating the media and adding fresh media containing the compounds and controls (day 2). This procedure was repeated after an additional 48 h (day 4). After incubating a final 24 h, the 96-well plates were rinsed with 1×PBS, blotted dry, and then frozen at −78° C. overnight (day 5). On day 6, cell proliferation was measured using the fluorescence-based CyQUANT Cell Proliferation Assay Kit (Invitrogen).
# Fluorimetry analysis was performed according to a modified procedure by McGowan et al. Cells were stained with 200 μL/well of 1× CyQUANT GR dye in cell lysis buffer for 10 min in the dark at room temperature and quantified by fluorimetry at 535 nm with 485 nm excitation. The fluorescence values were normalized to the DMSO vehicle control. The normalized values were plotted as an average±standard deviation of 6 wells per compound.
# MCF-7 cells were centrifuged in 1×PBS for 20 min, and then the pellet was resuspended in DMEM supplemented with 10% FBS and filtered through a 40 μm nylon cell strainer (Fisher Scientific) to prevent clumping. The cells were seeded at 1500 cells per well in 96-well flat bottom plates suitable for fluorimetry, using 175 μL, per well of DMEM supplemented with 10% FBS, and grown for 24 h in 5% CO2 at 37° C. The compounds 19 and 25 were dissolved in molecular biology grade DMSO to achieve a 42 mM stock and then sterile filtered through a 0.45 μm PVDF syringe filter unit (Fisher Scientific). […]
# Addition of compounds was performed as specified above for days 0-6. […] The fluorescence values were normalized to the DMSO vehicle controls corresponding to each concentration.
row,Structure (SMILES),pEC50
1,"c1ccc(Sc2nnc(-c3ccccc3)o2)cc1 [Compound 19, 2-Phenyl-5-(phenylthio)-1,3,4-oxadiazole]",5.10
2,"COc1cc(Sc2nc3ccccc3o2)cc(OC)c1OC [Compound 25, 2-(3,4,5-Trimethoxyphenylthio)benzoxazole]",5.35

# Same assay, conditions: compounds at 10 μM, compared to faslodex (ICI 182,780), FIG. 1
row,Structure (SMILES),anticancer activity: inhibition of MCF-7 cell proliferation (result in words)
1,"c1ccc(Sc2nc3ccccc3s2)cc1 [Compound 15, 2-Phenylthiobenzothiazole]",inactive
2,"c1ccc(Sc2nc3ccccc3o2)cc1 [Compound 16, 2-Phenylthiobenzoxazole]",inactive
3,"COc1cc(Sc2nnc(-c3ccccc3)o2)cc(OC)c1OC [Compound 27, 2-Phenyl-5-(3,4,5-trimethoxyphenylthio)-1,3,4-oxadiazole]",performed poorly
